# Results as given in patent US20260103721A1, “GENES CONTROLLING BARRIER FORMATION IN ROOTS” (The Regents of the University of California, priority 2022, published 2026).
# What was measured:
# Format in all cases: in vivo, Solanum lycopersicum
# tomato root = experiment: Root growth after 24 h piperonylic acid treatment; conditions: 200 μM PA, 4-day-old plants, newly grown root zone after transfer
# Experimental: FIG. 7A-B (also referred to as Supplemental FIG. 2 in technical section). […] A. Schematic representation of the experimental design to test the PA. 4-day-old plants after germination were transferred to MS media+1% sucrose with and without 200 μM of PA. After 24 hours, root growth was measured for the part of the root that grew after transferring. Orange horizontal bar=newly grown root after transferring. B. Root growth after 24H in control and PA treatment for the newly root zone after transferring (statistical significance test determined by ANOVA p-value 0.05).
# (§1) Seeds of M82 were grown in 1% MS+1% sucrose. Four days after germination, plants were transferred to new MS square plates with/without 200 μM of piperonylic acid (Sigma P49805-5G) and 200 μM piperonylic acid plus 10 mM monolignols (Sigma Aldrich 223735-100MG,404586-100MG) for 24 hours in the dark, with DMSO as the solvent. Three cm segments from the root tip including the root meristem were exposed to 15 μg/mL PI (P4170; Sigma) in the dark at 30° C. for 1 h. The roots were washed in water and one cm segments from the root tip were embedded in 3% agarose and made sections of 150-200 μM using a vibratome (Leica VT1000 S). Confocal Laser Scanning microscopy was performed on a Zeiss LSM700 confocal with the 20× objective, at 405 nm excitation and 600-650 nm detection.
# [1] = system: root lignin biosynthesis within the endodermis and exodermis; experiment: Root lignin deposition (basic fuchsin staining) after PA treatment; conditions: 200 μM PA, 24 hours
# Experimental: For root sections stained with basic fuchsin (Fisher scientific Cat no 632-99-5) and calcofluor white (PhytoTechnology laboratories Cat no 4404-43-7), 1 cm segments from the root tip were embedded in 3% agarose and were sectioned at 150-200 μM using a vibratome (Leica VT1000 S). The sections were stained in Clearsee buffer (Ursache et al. 2018) with basic fuchsin for 30 minutes then washed two times. In some cases, the sections were stained with calcofluor after basic fuchsin for 30 minutes and washed two times. Confocal Laser Scanning microscopy was performed on a Zeiss LSM700 confocal with the 20× objective, basic fuchsin: 550-561 nm excitation and 570-650 nm detection. Root samples were mounted in ClearSee (Ursache et al., 2018) and scanned and imaged on a Zeiss Observer Z1 with the 20× or 40× objective, basic fuchsin: 550-561 nm excitation and 570-650 nm detection and calcofluor white: 405 nm excitation and 425-475 nm detection.
# Seeds of M82 were grown in 1% MS+1% sucrose. Four days after germination, plants were transferred to new MS square plates with/without 200 μM of piperonylic acid (Sigma P49805-5G) and 200 μM piperonylic acid plus 10 mM monolignols (Sigma Aldrich 223735-100MG,404586-100MG) for 24 hours in the dark, with DMSO as the solvent. […]
# [2] = system: exodermal lignin cap (apoplastic barrier) of tomato root; experiment: Apoplastic tracer assay with propidium iodide (PI); conditions: 200 μM PA 24 hours, then PI 30 minutes
# Experimental: as §1, with “Three cm segments from the root tip including the root meristem were exposed to 15 μg/mL PI (P4170; Sigma) in the dark at 30° C. for 1 h.” left out
structure (smiles),measurement,setting,value
"O=C(O)c1ccc2c(c1)OCO2 [PA, Piperonylic acid]",root growth,tomato root,does not interfere with root growth
same,root growth,tomato root; listed as Piperonylic acid,does not affect root growth
same,root lignin biosynthesis within the endodermis and exodermis,[1],does disrupt root lignin biosynthesis
same,PI penetration into cortex cells,[2],Pt was observed after exposure within cortex cells
same,PI signal in the exodermal lignin cap (PI blockage),[2]; control versus PA-treated,more intense in control relative to PA-treated plants
